Patent US20250282819A1, “MITOCHONDRIA-[…] PEPTIDE THAT CAN BE […] DELIVERED AT NANOMOLAR CONCENTRATION, AND USE THEREOF” (CAMP THERAPEUTICS INC., priority 2021, published 2025)
Entries after “also recorded” stand apart in the source; their conditions may differ. Where a SMILES comes first, the peptide text is derived from it.

What was measured:
[1] = Cardiolipin binding assay, NBD fluorescence with liposomes
Description: To further validate specificity of CMP3013 for cardiolipin-rich membranes identified in Example 9, two model systems mimicking the inner mitochondrial membrane were constructed using POPC (1-palmitoyl-2-oleoyl-sn-glycero-3-phosphocholine) and POPE (1-palmitoyl-2-oleoyl-sn-glycero-3-phosphoethanolamine), and cardiolipin binding assays were performed using an NBD-labeled CMP3013 monomer (NBD-CMP3013m), according to the method described in Experimental Example 12.
For the association experiments, 1 μM of NBD-labeled peptide dissolved in PBS was prepared in a black 96-well plate. Liposome (POPC:POPE=2:1 or POPC:POPE=2:1, containing 10% cardiolipin) was added to the peptide until the desired concentration was achieved. The mixture of NBD-peptide and liposome was mixed well through pipetting, and then fluorescence emission of the sample was monitored (λex=467 nm, λem=536 nm).
For the association experiments depending on cardiolipin ratio, 1 μM of NBD-labeled peptide or C6-NBD dissolved in PBS was prepared in a black 96-well plate. Liposome (POPC:POPE=2:1, containing 0 to 20% cardiolipin) was added to the peptide until the desired concentration (5 μM) was achieved. This mixture was mixed well through pipetting and fluorescence emission of the sample was monitored (λex=467 nm, λem=536 nm).
For dissociation experiments, 1 μM of NBD-labeled peptide dissolved in PBS was prepared in a black 96-well plate. Liposome (POPC:POPE=2:1 or POPC:POPE=2:1, containing 10% cardiolipin) was added to the peptide until the desired concentration (100 μM) was achieved. The mixture of NBD-peptide and liposome was mixed well through pipetting and fluorescence intensity of the mixture was measured (λex=467 nm, λem=536 nm). The unlabeled peptide (acetylated peptide) was then added to the mixture and mixed well through pipetting. Incubation in the dark was performed for 10 minutes, and then changes in fluorescence intensity were monitored. Peptide addition and fluorescence measurement were repeated until the concentration of acetylated peptide reached 40 μM.

HeLa cells [2] = experiment: Co-localization with endosome, lysosome and cardiolipin (NAO) markers; format: cell-based
Description: Next, to investigate whether mitochondrial damage affects the amount of peptide present in lysosomes, cardiolipin-specific targeting was investigated using NAO in the presence or absence of CCCP.
For microscopic observation, HeLa cells were cultured in glass-bottom dishes (SPL, 200350, Korea). The cells were then treated with peptides for 3 hours and stained with MitoTracker™ (Thermo Fisher Scientific, A1372, USA; 100 nM, 1 hr), nonyl acridine orange (NAO; Thermo Fisher Scientific, A1372; 100 nM, 1 hr), Hoechst 33342 ([…], 20 min), CellLight™ early endosomes-GFP (Thermo Fisher Scientific, C10586; […], 16 hr), and/or LysoTracker™ (Thermo Fisher Scientific, L7525; 50 nM, 30 min). The cells were then rinsed with PBS and HBSS was added thereto. Images of the stained cells were obtained using a microscope (Zeiss LSM 880 and ELYRA PS.1). To generate ultra-high resolution images, a structured illumination process was performed with ZEN Black software. Pearson r values were calculated by using ImageJ software.

C57BL/6 mice = experiment: TAA-induced acute liver failure model
Description: Serum samples were obtained from blood collected from the heart on Day 6, and the samples were analyzed using a hematology analyzer (Hitachi Chemical Industries, Ltd., Japan). Blood AST (aspartate aminotransferase), ALT (alanine aminotransferase), and ALP (alkaline phosphatase) were measured and evaluated as liver injury markers.
Serum samples were obtained on the seventh day (Day 7) and analyzed using a hematology analyzer. Blood AST (aspartate aminotransferase), ALT (alanine aminotransferase), and ALP (alkaline phosphatase) were measured and evaluated as liver injury markers.

HeLa cells [3] = experiment: Preferential binding to CCCP-damaged mitochondria, confocal microscopy; format: cell-based; conditions: 100 nM 3 hours, 20 μM CCCP
Description: To damage mitochondria, treatment with carbonyl cyanide m-chlorophenyl hydrazone (CCCP) at a concentration of 20 μM was performed for 30 minutes.
For microscopic observation, HeLa cells were cultured in glass-bottom dishes (SPL, 200350, Korea). The cells were then treated with peptides for 3 hours and stained with MitoTracker™ (Thermo Fisher Scientific, A1372, USA; 100 nM, 1 hr), nonyl acridine orange (NAO; Thermo Fisher Scientific, A1372; 100 nM, 1 hr), Hoechst 33342 (1 g/mL, 20 min), CellLight™ early endosomes-GFP (Thermo Fisher Scientific, C10586; 2 L/10,000 cells, 16 hr), and/or LysoTracker™ (Thermo Fisher Scientific, L7525; 50 nM, 30 min). The cells were then rinsed with PBS and HBSS was added thereto. Images of the stained cells were obtained using a microscope (Zeiss LSM 880 and ELYRA PS.1). To generate ultra-high resolution images, a structured illumination process was performed with ZEN Black software. Pearson r values were calculated by using ImageJ software.

HeLa cells [4] = experiment: Cristae protecting ability by TEM; format: cell-based; conditions: 50 or 100 nM 2 hours, then 0.5 mM H2O2 2 hours
Description: In order to determine the mode of action of the peptide according to the disclosure, attenuation of cristae number in mitochondria was examined in relation to impaired mitochondrial function caused by H2O2 treatment. In other words, it was investigated whether promotion of normal mitochondrial function caused by CMP3013 was related to preservation of cristae structure. To evaluate this protective effect, transmission electron microscopy (TEM) images were used to observe changes in the shape and number of cristae in damaged HeLa cells in the presence or absence of CMP3013.
1.8×10^6 HeLa cells were fixed with modified Karnovsky fixative [2% paraformaldehyde and 2% glutaraldehyde dissolved in […]] at 4° C. for 3 hours. A sample was washed three times with […] sodium cacodylate buffer (pH 7.2) at 4° C. for 10 minutes, and then post-fixed at 4° C. for 2 hours with 1% osmium tetroxide dissolved in […] sodium cacodylate buffer (pH 7.2). The sample was then washed twice briefly with distilled water. Subsequently, the sample was then en bloc stained with 0.5% uranyl acetate at 4° C. overnight. […]

[5] = 1 mg/kg intravenous x3, TAA 100 mg/kg Day 5, serum Day 6
[6] = mice, 1 mg/kg intravenous, Days 0, 2, 4

For CC(=O)N[C@@H](CC1CCCCC1)C(=O)N[C@H]1CSSC[C@@H](C(=O)N[C@@H](CCCNC(=N)N)C(N)=O)NC(=O)[C@H](CC2CCCCC2)NC(=O)[C@H](CCCNC(=N)N)NC(=O)[C@H](CCCNC(=N)N)NC(=O)[C@H](CC2CCCCC2)NC(=O)[C@H](CC(C)C)NC(=O)[C@H](CCCNC(=N)N)NC(=O)[C@@H](NC(=O)[C@H](CC2CCCCC2)NC(C)=O)CSSC[C@@H](C(=O)N[C@@H](CCCNC(=N)N)C(N)=O)NC(=O)[C@H](CC2CCCCC2)NC(=O)[C@H](CCCNC(=N)N)NC(=O)[C@H](CCCNC(=N)N)NC(=O)[C@H](CC2CCCCC2)NC(=O)[C@H](CC(C)C)NC(=O)[C@H](CCCNC(=N)N)NC1=O [CMP3013] (HELM PEPTIDE1{[ac].[Cha].C.R.L.[Cha].R.R.[Cha].C.R.[am]}|PEPTIDE2{[ac].[Cha].C.R.L.[Cha].R.R.[Cha].C.R.[am]}$PEPTIDE1,PEPTIDE2,3:R3-10:R3|PEPTIDE1,PEPTIDE2,10:R3-3:R3$$$V2.0), the “stronger binding capacity for cardiolipin than SS-31” value [1] was “approximately 100 fold”, the “proportion of peptide present in lysosomes (Pearson r, CMP3013-Lysotracker)” value (HeLa cells [2]; absence of CCCP) was 0.30 and the “co-localization of CMP3013 with cardiolipin (NAO), Pearson r” value (HeLa cells [2]; not treated with CCCP) was 0.08. The “proportion of peptide present in lysosomes (Pearson r, CMP3013-Lysotracker)” value (HeLa cells [2]; presence of CCCP) was 0.29, the “co-localization of CMP3013 with cardiolipin (NAO), Pearson r” value (HeLa cells [2]; treated with CCCP) was 0.43 and the “ALP decrease as compared with the TAA-administered group” value (C57BL/6 mice; 1 mg/kg intravenous x3) was 19%. The “AST reduction as compared with the group having received TAA alone” value (C57BL/6 mice; 1 mg/kg intravenous x3) was 35%, the “blood ALP” value (C57BL/6 mice; [5]) was 462.00±81.10 U/L and the “blood ALT” value (C57BL/6 mice; [5]) was 332.60±86.31 U/L. The “blood AST” value (C57BL/6 mice; [5]) was 316.40±52.65 U/L, the “dose dependence of AST and ALT decrease” value (C57BL/6 mice; intraperitoneal 1, 5, or 10 mg/kg) was “dose-dependent manner” and the “blood AST, ALT, and ALP” value (C57BL/6 mice; intraperitoneal x3, TAA 100 mg/kg Day 5, serum Day 7) was “all significantly reduced”. The adverse events (C57BL/6 mice; [6]) was “no adverse events occurred”, the mortality (C57BL/6 mice; [6]) was “no animals died” and the weight loss (C57BL/6 mice; mice, TAA and/or CMP3013) was “no weight loss was observed”. The “targeting of damaged mitochondria” value (HeLa cells [3]) was “moves into damaged mitochondria; also recorded: preferentially target damaged mitochondria” and the “number of cristae structures (TEM)” value (HeLa cells [4]) was “same number of normal cristae structures as in the control group with no treatment”.
